Data: patent publication US20250255867A1 (Kadmon Corporation, LLC, priority 2022, published 2025)

Conditions: Cohort 3 400 mg QD

CC(C)NC(=O)COc1cccc(-c2nc(Nc3ccc4[nH]ncc4c3)c3ccccc3n2)c1 [Belumosudil, 2-{3-[4-(1H-indazol-5-ylamino)-2-quinazolinyl]phenoxy}-N-(propan-2-yl) acetamide]
Blood loss anaemia: # Events: 0
Blood loss anaemia: Affected/At Risk: 0/21
Blood loss anaemia: Affected/At Risk (%): (0%)
Bronchial secretion retention: # Events: 0
Bronchial secretion retention: Affected/At Risk: 0/21
Bronchial secretion retention: Affected/At Risk (%): (0%)
Bronchitis: # Events: 1
Bronchitis: Affected/At Risk: 1/21
Bronchitis: Affected/At Risk (%): (4.76%)
Bronchoscopy: # Events: 0
Bronchoscopy: Affected/At Risk: 0/21
Bronchoscopy: Affected/At Risk (%): (0%)
Catheter site haemorrhage: # Events: 0
Catheter site haemorrhage: Affected/At Risk: 0/21
Catheter site haemorrhage: Affected/At Risk (%): (0%)
Chills: # Events: 0
Chills: Affected/At Risk: 0/21
Chills: Affected/At Risk (%): (0%)
Chronic kidney disease: # Events: 0
Chronic kidney disease: Affected/At Risk: 0/21
Chronic kidney disease: Affected/At Risk (%): (0%)
Conjunctival haemorrhage: # Events: 1
Conjunctival haemorrhage: Affected/At Risk: 1/21
Conjunctival haemorrhage: Affected/At Risk (%): (4.76%)
Conjunctivitis: # Events: 3
Conjunctivitis: Affected/At Risk: 3/21
Conjunctivitis: Affected/At Risk (%): (14.29%)
Constipation: # Events: 4
Constipation: Affected/At Risk: 3/21
Constipation: Affected/At Risk (%): (14.29%)
Contrast media allergy: # Events: 0
Contrast media allergy: Affected/At Risk: 0/21
Contrast media allergy: Affected/At Risk (%): (0%)
Contusion: # Events: 4
Contusion: Affected/At Risk: 3/21
Contusion: Affected/At Risk (%): (14.29%)
Corneal abrasion: # Events: 0
Corneal abrasion: Affected/At Risk: 0/21
Corneal abrasion: Affected/At Risk (%): (0%)
Corneal infection: # Events: 0
Corneal infection: Affected/At Risk: 0/21
Corneal infection: Affected/At Risk (%): (0%)
Cough: # Events: 9
Cough: Affected/At Risk: 7/21
Cough: Affected/At Risk (%): (33.33%)
Decreased appetite: # Events: 4
Decreased appetite: Affected/At Risk: 4/21
Decreased appetite: Affected/At Risk (%): (19.05%)
Dehydration: # Events: 2
Dehydration: Affected/At Risk: 2/21
Dehydration: Affected/At Risk (%): (9.52%)
Depression: # Events: 3
Depression: Affected/At Risk: 3/21
Depression: Affected/At Risk (%): (14.29%)
Diarrhoea: # Events: 11
Diarrhoea: Affected/At Risk: 7/21
Diarrhoea: Affected/At Risk (%): (33.33%)
Dizziness: # Events: 2
Dizziness: Affected/At Risk: 2/21
Dizziness: Affected/At Risk (%): (9.52%)
Drug eruption: # Events: 0
Drug eruption: Affected/At Risk: 0/21
Drug eruption: Affected/At Risk (%): (0%)
Dry eye: # Events: 2
Dry eye: Affected/At Risk: 2/21
Dry eye: Affected/At Risk (%): (9.52%)
Dry skin: # Events: 1
Dry skin: Affected/At Risk: 1/21
Dry skin: Affected/At Risk (%): (4.76%)
Dyspepsia: # Events: 1
Dyspepsia: Affected/At Risk: 1/21
Dyspepsia: Affected/At Risk (%): (4.76%)
Dysphagia: # Events: 3
Dysphagia: Affected/At Risk: 2/21
Dysphagia: Affected/At Risk (%): (9.52%)
Dyspnoea exertional: # Events: 0
Dyspnoea exertional: Affected/At Risk: 0/21
Dyspnoea exertional: Affected/At Risk (%): (0%)
Dyspnoea: # Events: 6
Dyspnoea: Affected/At Risk: 6/21
Dyspnoea: Affected/At Risk (%): (28.57%)
Embolism: # Events: 1
Embolism: Affected/At Risk: 1/21
Embolism: Affected/At Risk (%): (4.76%)
Enamel anomaly: # Events: 0
Enamel anomaly: Affected/At Risk: 0/21
Enamel anomaly: Affected/At Risk (%): (0%)
Epidural lipomatosis: # Events: 0
Epidural lipomatosis: Affected/At Risk: 0/21
Epidural lipomatosis: Affected/At Risk (%): (0%)
Epstein-Barr virus infection: # Events: 0
Epstein-Barr virus infection: Affected/At Risk: 0/21
Epstein-Barr virus infection: Affected/At Risk (%): (0%)
Erectile dysfunction: # Events: 0
Erectile dysfunction: Affected/At Risk: 0/21
Erectile dysfunction: Affected/At Risk (%): (0%)
Eye irritation: # Events: 0
Eye irritation: Affected/At Risk: 0/21
Eye irritation: Affected/At Risk (%): (0%)
Eye pain: # Events: 0
Eye pain: Affected/At Risk: 0/21
Eye pain: Affected/At Risk (%): (0%)
Eye pruritus: # Events: 0
Eye pruritus: Affected/At Risk: 0/21
Eye pruritus: Affected/At Risk (%): (0%)
Fall: # Events: 1
Fall: Affected/At Risk: 1/21
Fall: Affected/At Risk (%): (4.76%)
Fatigue: # Events: 14
Fatigue: Affected/At Risk: 10/21
Fatigue: Affected/At Risk (%): (47.62%)
Flatulence: # Events: 1
Flatulence: Affected/At Risk: 1/21
Flatulence: Affected/At Risk (%): (4.76%)
Flushing: # Events: 0
Flushing: Affected/At Risk: 0/21
Flushing: Affected/At Risk (%): (0%)
Fungal infection: # Events: 0
Fungal infection: Affected/At Risk: 0/21
Fungal infection: Affected/At Risk (%): (0%)
Gamma-glutamyltransferase increased: # Events: 0
Gamma-glutamyltransferase increased: Affected/At Risk: 0/21
Gamma-glutamyltransferase increased: Affected/At Risk (%): (0%)
Gastric ulcer: # Events: 0
Gastric ulcer: Affected/At Risk: 0/21
Gastric ulcer: Affected/At Risk (%): (0%)
Gastrooesophageal reflux disease: # Events: 2
Gastrooesophageal reflux disease: Affected/At Risk: 2/21
Gastrooesophageal reflux disease: Affected/At Risk (%): (9.52%)
Generalised oedema: # Events: 1
Generalised oedema: Affected/At Risk: 1/21
Generalised oedema: Affected/At Risk (%): (4.76%)
Genital infection fungal: # Events: 0
Genital infection fungal: Affected/At Risk: 0/21
Genital infection fungal: Affected/At Risk (%): (0%)
Glaucoma: # Events: 0
Glaucoma: Affected/At Risk: 0/21
